According to US20110021579A1, “PERITONEUM PROTECTING AGENT” (TOKAI UNIVERSITY EDUCATIONAL SYSTEM, priority 2005, published 2011):

Tests used:
[1] = test system: pentosidine (AGE and carbonyl stress marker); test: Pentosidine content in peritoneal membrane by HPLC; type: in vivo, Sprague-Dawley rats
Description: (§1) Six-week-old male Sprague-Dawley rats weighing 200±3 g (CLER Japan, Inc., Tokyo) were randomly assigned to: sham-operated control rats (Group 1: n=6); uremic rats without peritoneal dialysis (Group 2: n=12); and uremic rats undergoing peritoneal dialysis (n=24). The uremic rats undergoing peritoneal dialysis were further divided into two groups: a group dialyzed with 4.25% Dianeal (registered trademark) (3.86% glucose, 2.5 mEq/CAPD fluid, Baxter Healthcare Corp., Round Lake; IL, USA) (Group 3: n=12); and a group peritoneally dialyzed with 4.25% Dianeal (registered trademark) containing pyridoxamine (Pridorine, Biostratum Inc., NC, USA) at 5 mg/l (Group 4: n=12).
(§2) Uremic models were generated by 5/6 nephrectomy according to previous reports [Lameire N, et al. Kidney Int 54: 2194-2206, 1998; and Kleinknecht C, et al., Kidney Int 47: S51-S54, 1995]. […]
(§3) After 6 weeks of PD, 4.25% Dianeal (registered trademark) was injected from the access port and a peritoneal equilibration test (60 minutes) was performed. […] Mesenterium was excised and assessed by light microscopy or immunohistochemistry.
The pentosidine content in the rat peritoneal membrane was assessed as follows, using HPLC in accordance with an already-reported method [Miyata T, et al., J. Am. […] The effluent was monitored using a fluorescence detector (RF-10A: Shimadzu, Tokyo) at an excitation-emission wavelength of 335/385 nm. […]

[2] = Biochemical data and body weight of subtotally nephrectomized uremic rats undergoing peritoneal dialysis; type: in vivo; conditions: 6-week PD with pyridoxamine 5 mg/l (Group 4), 21 weeks, mean ± SD
Description: as §1, §2, §3
(§4) The concentrations of glucose, creatinine, urea, total cholesterol, and triglyceride in plasma and peritoneal dialysate were measured with an autoanalyzer (Hitachi 736-60, Hitachi Co. Ltd., Tokyo).

[3] = test system: VEGF, FGF-2, vWF, AGEs, and TGF-β1; test: Immunohistochemical analysis of mesenterium tissue sections; type: in vivo, Sprague-Dawley rats; conditions: rats treated with pyridoxamine; prominent in uremic rats with PD, FIG. 8
Description: as §1
Uremic models were generated by 5/6 nephrectomy according to previous reports [Lameire N, et al. Kidney Int 54: 2194-2206, 1998; and Kleinknecht C, et al., Kidney Int 47: S51-S54, 1995]. The animals were provided free access to standard experimental rat chow (CE2: CLER Japan, Inc., Tokyo) containing 1.06% calcium, 0.9% phosphate, and 21% proteins, and tap water until the evening prior to slaughter. […]
(§5) After 6 weeks of PD, 4.25% Dianeal (registered trademark) was injected from the access port and a peritoneal equilibration test (60 minutes) was performed. […] Mesenterium was excised and assessed by light microscopy or immunohistochemistry. […]

FGF-2 = FGF-2 mRNA expression in mesenterium by semiquantitative RT-PCR; type: in vivo, Sprague-Dawley rats; conditions: peritoneal tissue, uremic rats with PD plus pyridoxamine, FIG. 7C
Description: as §1, with “n=12). […]” for “n=12).”
(§6) Expression of VEGF or FGF2 (mesenterium) mRNA was analyzed by using semiquantitative reverse transcriptase-polymerase chain reaction (RT-PCR). […]
(§7) β-actin was used as an internal standard of RNA to enable comparison of RNA levels among different samples. […] The PCR products that were resolved by electrophoresis on a 2% agarose gel and stained using ethidium bromide were quantified by measuring the signal intensity with a quantitation program (NIH image software). The mRNA was determined in triplicate and the results were averaged for each experiment. […] The results were averaged and expressed as means±SD. […]

[4] = test system: peritoneal membrane of uremic rats; test: Functional analysis of peritoneal membrane by peritoneal equilibration test (PET); type: in vivo, Sprague-Dawley rats
Description: as §1
Uremic models were generated by 5/6 nephrectomy according to previous reports [Lameire N, et al. Kidney Int 54: 2194-2206, 1998; and Kleinknecht C, et al., Kidney Int 47: S51-S54, 1995]. The animals were provided free access to standard experimental rat chow (CE2: CLER Japan, Inc., Tokyo) containing 1.06% calcium, 0.9% phosphate, and 21% proteins, and tap water until the evening prior to slaughter. On the 13th week, Rat-o-Ports with a 13.5 cm catheter (Access Technologies, Norfolk Medical, Skokie, Ill., USA) were implanted into all the rats under anesthetization of isoflurane. The Rat-o-ports were implanted subcutaneously in the neck, after one week of which the peritoneal dialysis with 30 ml of dialysate was initiated twice a day. The PD was continued for 6 weeks [Zweers MM, et al., Nephrol Dial Transplant 16: 651-654, 2001]. Before the initiation of the peritoneal dialysis, four, five, and two rats had died respectively in Group 2, Group 3, and Group 4. […]
as §3, §4
The dialysate/plasma (D/P) ratio of Cr (A) and urea (B), and the absorption of glucose from the dialysate (D/D0) (C) were assessed, during a 60-minute exchange with 20 ml of 3.85% glucose dialysate, in control rats (Group 1), uremic rats without PD (Group 2), uremic rats undergoing peritoneal dialysis in the absence of pyridoxamine (Group 3), and uremic rats undergoing peritoneal dialysis in the presence of 5 mg/L pyridoxamine (Group 4). a: p<0.01 vs. Group 1. b: p<0.01 vs. Group 2. c: p<0.01 vs. Group 3. d: p<0.01 vs. Group 4. e: p<0.05 vs. Group 3. f: p<0.05 vs. Group 4.

[5] = test system: vessels in the peritoneal tissue; test: Number of vessels in mesenterium (von Willebrand factor staining, image analysis); type: in vivo, Sprague-Dawley rats; conditions: uremic rats with PD plus pyridoxamine; uremia alone 1.87-fold, PD 5.83-fold
Description: as §1, §2, §5
The number of vessels was assessed in the sections stained for von Willebrand factor by image analysis using a WinROOF software (Mitani. Corporation, Tokyo). […]

VEGF = VEGF mRNA expression in mesenterium by semiquantitative RT-PCR; type: in vivo, Sprague-Dawley rats; conditions: peritoneal tissue, uremic rats with PD plus pyridoxamine, FIG. 7B
Description: as §1, with “n=12). […]” for “n=12).”
as §6, §7

Structure (SMILES): Cc1ncc(CO)c(CN)c1O [pyridoxamine]
- Slope of the regression line between pentosidine content and renal failure ([1]; Group 4, FIG. 5B, in words): lowered the slope of the regression line
- Tissue pentosidine content ([1]; Group 4 vs Group 3, FIG. 5A): significantly lowered
- Body weight [2]: 419 ± 29 g
- VEGF, FGF-2, vWF, AGEs, and TGF-β1 stainings in capillaries of the mesenterium [3]: only faint stainings
- FGF-2 mRNA expression (ratio over β-actin) (FGF-2): equivalent levels to those of uremic rats without PD
- Absorption rate of glucose from the dialysate (D/D0) ([4]; 6-week treatment, pyridoxamine 5 mg/L in dialysate, 60-minute PET, vs Group 3): significantly lowered
- Transport rate of small solutes (creatinine, urea) from the plasma (D/P ratio) ([4]; 6-week treatment, pyridoxamine 5 mg/L in dialysate, 60-minute PET, vs uremic PD rats without pyridoxamine (Group 3)): significantly lowered
- Slope of the regression line between increased permeability for small solutes (creatinine and glucose) and degree of renal failure ([4]; Group 4, FIGS. 3A and B): dramatically lowered
- Influence of uremia on membrane permeability ([4]; pyridoxamine treatment, uremic rats with PD): completely dissipated
- Increase in vessel number (ratio to number of vessels of healthy control animals) [5]: 2.68 fold
- VEGF mRNA expression (ratio over β-actin) (VEGF): equivalent levels to those of uremic rats without PD
